In the CheMixHub viscosity set:

Test: xn = mol fraction of the nth substance listed

O=[N+]([O-])c1ccccc1O + Brc1ccccc1
viscosity [mPa·s], 101 kPa
Details	303.15 K	308.15 K	313.15 K	318.15 K	323.15 K
x1 = 0.602	1.884	1.719	1.576	1.46	1.35
x1 = 0.8579	–	2.658	2.366	2.134	1.934

CCCCCCCCCO + C1CCCCC1
viscosity [mPa·s]
Details	293.15 K	303.15 K	313.15 K	323.15 K
100 kPa, x2 = 0.0822	9.85	6.89	4.93	3.66
100 kPa, x2 = 0.1616	8.5	6	4.32	3.23
100 kPa, x2 = 0.2413	7.2	5.17	3.76	2.83
100 kPa, x2 = 0.3502	5.63	4.15	3.05	2.33
100 kPa, x2 = 0.4404	4.51	3.44	2.54	1.96
100 kPa, x2 = 0.5611	3.29	2.63	1.97	1.56
100 kPa, x2 = 0.6503	2.57	2.13	1.6	1.3
100 kPa, x2 = 0.7412	1.96	1.68	1.3	1.08
100 kPa, x2 = 0.8514	1.42	1.26	1.03	0.86
100 kPa, x2 = 0.9397	1.11	0.97	0.81	0.7
101.33 kPa, x1 = 0.105	–	1.068	–	–
101.33 kPa, x1 = 0.2105	–	1.397	–	–
101.33 kPa, x1 = 0.311	–	1.784	–	–
101.33 kPa, x1 = 0.3969	–	2.186	–	–
101.33 kPa, x1 = 0.4955	–	2.735	–	–
101.33 kPa, x1 = 0.6055	–	3.462	–	–
101.33 kPa, x1 = 0.6959	–	4.153	–	–
101.33 kPa, x1 = 0.801	–	5.108	–	–
101.33 kPa, x1 = 0.9054	–	6.215	–	–

Cc1cccc2ccccc12 + CC1CCCCC1
viscosity [mPa·s], 100 kPa
Details	x1 = 0.125	x1 = 0.25	x1 = 0.375	x1 = 0.5	x1 = 0.625	x1 = 0.75	x1 = 0.875
303.15 K	0.715	0.829	0.972	1.13	1.37	1.67	2.06
323.15 K	0.559	0.64	0.733	0.853	1.01	1.2	1.44

CC(=O)N(C)C + CC#N
303.15 K, 101.33 kPa
Details	viscosity [mPa·s]
x2 = 0.0996	0.8371
x2 = 0.2019	0.7966
x2 = 0.2938	0.7487
x2 = 0.3974	0.7001
x2 = 0.497	0.6422
x2 = 0.5983	0.5843
x2 = 0.7013	0.5199
x2 = 0.7983	0.4568
x2 = 0.9001	0.3878

CCC1CCCCC1 + CC(=O)CC(C)C
298.15 K, 101 kPa
Details	viscosity [mPa·s]
x2 = 0.1314	0.695
x2 = 0.2549	0.645
x2 = 0.3669	0.621
x2 = 0.473	0.6
x2 = 0.5856	0.583
x2 = 0.7041	0.567
x2 = 0.8091	0.556
x2 = 0.9079	0.547

CC(=O)N(C)C + CC(C)O
303.15 K, 101 kPa
Details	viscosity [mPa·s]
x1 = 0.1016	1.428
x1 = 0.2027	1.222
x1 = 0.3046	1.1
x1 = 0.5032	0.994
x1 = 0.6012	0.945
x1 = 0.7055	0.939
x1 = 0.906	0.884

CC(=O)N1CCOCC1 + CC(C)O
viscosity [mPa·s], 101 kPa
Details	293.15 K	303.15 K	313.15 K	323.15 K
x1 = 0.0522	3.709	2.981	2.398	2.058
x1 = 0.1274	4.822	4.027	3.33	2.819
x1 = 0.2153	6.051	5.18	4.35	3.754
x1 = 0.2813	6.792	5.862	4.934	4.274
x1 = 0.3169	7.055	6.069	5.112	4.418
x1 = 0.3909	7.575	6.548	5.454	4.686
x1 = 0.4569	7.956	6.872	5.68	4.85
x1 = 0.4999	8.044	6.922	5.666	4.794
x1 = 0.5444	8.301	7.14	5.816	4.903
x1 = 0.6113	8.421	7.202	5.778	4.799
x1 = 0.6342	8.356	7.116	5.656	4.656
x1 = 0.6888	8.479	7.191	5.651	4.597
x1 = 0.7522	8.573	7.229	5.593	4.478
x1 = 0.7976	8.575	7.191	5.487	4.328
x1 = 0.8555	8.612	7.176	5.389	4.174
x1 = 0.9231	8.559	7.065	5.172	3.892
x2 = 0.0188	8.649	7.104	5.163	3.893

Cc1cccc2ccccc12 + CC(CC(C)(C)C)CC(C)(C)CC(C)(C)C
viscosity [mPa·s], 100 kPa
Details	x1 = 0.125	x1 = 0.25	x1 = 0.375	x1 = 0.5	x1 = 0.625	x1 = 0.75	x1 = 0.875
293.15 K	3.46	3.24	3.09	2.97	2.88	2.9	3.02
303.15 K	2.75	2.61	2.47	2.38	2.32	2.33	2.4
313.15 K	2.29	2.14	2.02	1.95	1.9	1.91	1.97
323.15 K	1.86	1.76	1.7	1.64	1.6	1.61	1.64

CCCCCCCCCO + CCC(C)=O
viscosity [mPa·s], 100 kPa
Details	x2 = 0.0834	x2 = 0.1589	x2 = 0.2407	x2 = 0.3508	x2 = 0.4403	x2 = 0.5589	x2 = 0.6502	x2 = 0.7393	x2 = 0.8501	x2 = 0.9393
293.15 K	8.68	6.91	5.59	4.29	3.39	2.38	1.83	1.33	0.78	0.56
303.15 K	6.38	5.06	3.89	2.91	2.25	1.52	0.98	0.76	0.53	0.46
313.15 K	4.39	3.52	2.8	2.07	1.61	1.21	0.98	0.78	0.55	0.42
323.15 K	3.27	2.67	2.14	1.56	1.25	0.92	0.72	0.59	0.47	0.38

CC(=O)N1CCOCC1 + CCC(C)O
viscosity [mPa·s], 101 kPa
Details	293.15 K	303.15 K	313.15 K	323.15 K
x1 = 0.0516	5.054	4.116	3.093	2.101
x1 = 0.1322	6.732	5.737	4.626	3.598
x1 = 0.2217	8.167	7.11	5.901	4.833
x1 = 0.2879	8.981	7.878	6.596	5.499
x1 = 0.3188	9.257	8.132	6.816	5.706
x1 = 0.3996	9.785	8.603	7.199	6.052
x1 = 0.4597	10.02	8.8	7.33	6.157
x1 = 0.5084	–	–	7.42	–
x1 = 0.5094	10.2	8.944	–	6.225
x1 = 0.5496	10.27	8.985	7.418	6.204
x1 = 0.6127	10.29	8.96	7.323	6.082
x1 = 0.6444	10.11	8.757	7.086	5.83
x1 = 0.6915	10.11	8.728	7.005	5.728
x1 = 0.7516	9.956	8.527	6.739	5.436
x1 = 0.7984	9.588	8.127	6.288	4.964
x1 = 0.8599	9.409	7.905	5.998	4.647
x1 = 0.9127	8.959	7.419	5.454	4.079
x2 = 0.0157	8.843	7.252	5.209	3.918

CCCCCC[n+]1ccn(C)c1.O=[N+]([O-])[O-] + CCC(C)O
Details	viscosity [mPa·s]
298.15 K, 100 kPa, x1 = 0.7392	237.5

Cc1cccc2ccccc12 + CCCCCCC
viscosity [mPa·s], 100 kPa
Details	x2 = 0.125	x2 = 0.25	x2 = 0.375	x2 = 0.5	x2 = 0.625	x2 = 0.75	x2 = 0.875
303.15 K	1.84	1.36	1.03	0.8	0.644	0.524	0.438
323.15 K	1.3	1	0.781	0.625	0.512	0.424	0.357
